According to US9018244B2, “Benzopyran compounds, compositions and uses thereof” (Olema Pharmaceuticals, Inc., priority 2011, dated 2015):
“Also recorded” adds a separate entry of the source.

Experiments:
[1] = Single dose oral pharmacokinetics study in female rats; assay type: in vivo, female Sprague Dawley rats
Protocol: The oral bioavailabilty in rats of OP-1038 was determined in the following study. 3 rats (female Sprague Dawley, non-fasted) were dosed by oral gavage (5 mg/kg body weight) in 0.5% CMC in water with a comparison to intravenous dosing (3 mg/kg body weight). Plasma was collected at the following hourly time points from rats in both groups (0, 0.08, 1.0, 2.0, 4.0, 8.0, 16.0, 24.0, 48.0 and 96.0 hours post dosing). Plasma concentrations of OP-1038 were determined by HPLC.

[2] = tested on: E2-stimulated AP activity in ECC-1 cells; assay: Inhibition of E2-stimulated AP activity in ECC-1 cells (antagonist mode); assay type: cell-based, human; settings: in the presence of 500 pM E2
Source text: FIG. 2. Alkaline phosphatase (AP) activity in ECC-1 cells correlates with the uterine wet weight of ovariectomized rats, as reported previously in Scafonas, et al. (*; Scafonas et al. “Agonist-like SERM effects on ER alpha-mediated repression of MMPI promoter activity predict in vivo effects on bone and uterus. J Steroid Biochem Mol. Biol. 2008 110(3-5):197-206) and Labrie, et al. (†; Labrie et al. “The combination of a novel selective estrogen receptor modulator with an estrogen protects the mammary gland and uterus in a rodent model: the future of postmenopausal women's health?” Endocrinology. 2003 144(11):4700-6). ECC-1 cells were treated with 500 pM 17β-estradiol (E2) or 1-5 nM anti-estrogens in hormone-depleted medium for 3 days. Note that the racemic mixture of acolbifene, EM-343, was used in the in vitro AP assay. AP activity was measured by incubating a chromogenic AP substrate, p-nitrophenyl phosphate, at 40° C. for 40 minutes followed by measuring the absorbance at 405 nm. Results were from a single representative experiment and reported as the mean percent induction relative to E2 from triplicate treatments, with error bars representing SEM.
FIG. 6. […] A) Comparison of inhibition of E2-stimulated AP activity of various benzopyran compounds (right) compared to published reference compounds (left). ECC-1 cells were treated with 100 nM anti-estrogens in the presence of 500 pM E2 and AP activity was measured as described in FIG. 2. Note that OP-1038 was statistically different from EM-343 and Gauthier compound Ia (p<0.0001 (exact p values stated in graph), calculated using Student's t-test). Results were from a single representative experiment and reported as the mean percent induction relative to E2 from triplicate treatments, with error bars representing SEM. […] IC50's were calculated using the least squares fit method. *Aragon Compound 28 was statistically different from equivalent dose of OP-1038 (p≦0.01, calculated using Student's t-test). […]
(§1) Method for performing the alkaline phosphatase (AP) assay. […] Absorbance was read at 405 nm using a plate spectophotometer. […]

[3] = tested on: alkaline phosphatase (AP) activity in ECC-1 cells; assay: Alkaline phosphatase (AP) assay in ECC-1 cells, agonist mode (without E2); assay type: cell-based, human; settings: without E2, 3 days
Source text: FIG. 2. Alkaline phosphatase (AP) activity in ECC-1 cells correlates with the uterine wet weight of ovariectomized rats, as reported previously in Scafonas, et al. (*; Scafonas et al. “Agonist-like SERM effects on ER alpha-mediated repression of MMPI promoter activity predict in vivo effects on bone and uterus. J Steroid Biochem Mol. Biol. 2008 110(3-5):197-206) and Labrie, et al. (†; Labrie et al. “The combination of a novel selective estrogen receptor modulator with an estrogen protects the mammary gland and uterus in a rodent model: the future of postmenopausal women's health?” Endocrinology. 2003 144(11):4700-6). ECC-1 cells were treated with 500 pM 17β-estradiol (E2) or 1-5 nM anti-estrogens in hormone-depleted medium for 3 days. […] AP activity was measured by incubating a chromogenic AP substrate, p-nitrophenyl phosphate, at 40° C. for 40 minutes followed by measuring the absorbance at 405 nm. […]
FIG. 3. […] ECC-1 cells were treated with 100 nM anti-estrogens and AP activity was measured as described in FIG. 2. […] Note that OP-1038 was statistically different from Aragon Compound 28 (WO2011/156518), EM-343 and Gauthier compound Ia (p≦0.01 (exact p values stated in graph), calculated using Student's t-test).
as §1

mouse uterus = assay: Uterine wet weight in ovariectomized BALB/c mice; assay type: in vivo; settings: for Uterine wet weight, agonist mode (without E2): q.d. three days, 100 mg/ml OP-1038 p.o. in 0.5% CMC; for Uterine wet weight, antagonist mode (+E2): three days, co-treated with 0.1 μg/ml E2 sc
Protocol: FIG. 9. […] Uterine wet weight was measured at the end of three days after treating ovariectomized BALB/c mice q.d. with vehicle or one of the following treatments (10 mice per group): 50 mg/kg tamoxifen p.o. in 0.5% carboxymethylcellulose (CMC); 50 mg/kg fulvestrant sc in 5% ethanol; […] OP-1038 p.o. in 0.5% CMC. Half the animals in each group were co-treated with 0.1 μg/ml E2 sc in cottonseed oil-ethanol (95:5), or vehicle alone. Animal experiments were conducted at the University of California, San Francisco following institutional animal care and use committee protocols.

[4] = Sprague-Dawley, rat, plasma, Oral, 5.00 mg/kg, female S.D. rats

Row | AUCextrap ([1]; Oral, 5.00 mg/kg, female S.D. rats) [%] | bioavailability ([1]; Sprague-Dawley, rat, plasma, Oral 5 mg/kg compared to intravenous 3 mg/kg, female S.D. rats, read-out: F % (Oral bioavailability)) [%] | Cmax ([1]; Sprague-Dawley, rat, plasma, Oral, 5.00 mg/kg, 0.5% CMC, female S.D. rats) [ng/mL] | AUC(0-inf) [1, 4] [ng·h/mL] | MRT last [1, 4] [h] | Tmax [1, 4] [h] | half-life [1, 4] [h] | AUC(0-t) ([1]; Sprague-Dawley, rat, plasma, Oral, 5.00 mg/kg, female S.D. rats, read-out: AUClast (0 to 96 h)) [ng·h/mL] | Oral bioavailability (in words) ([1]; oral gavage 5 mg/kg in rats) | SMILES | Inhibition of E2-stimulated AP activity [2] | Estrogenic activity: AP activity, percent induction relative to E2 [3] | Uterine wet weight, agonist mode (without E2) (mouse uterus) | Uterine wet weight, antagonist mode (+E2) (mouse uterus)
1 | 10.1 ± 6.26 | 18.9 | 24.8 ± 3 | 671 ± 44.8 | 25.9 ± 3.37 | 2.33 ± 1.53 | 28.5 ± 11.6 | 603 ± 46.7 | orally bioavailable | CC1=C(c2ccc(O)cc2)C(c2ccc(OCCN3CC[C@@H](C)C3)cc2)Oc2cc(O)ccc21 (stereo partly drawn) [OP-1038, 3-(4-hydroxyphenyl)-4-methyl-2-(4-{2-[(3R)-3-methylpyrrolidin-1-yl]ethoxy}phenyl)-2H-chromen-7-ol] | more potent than Aragon Cpd. 28; also recorded: inhibit E2-stimulated AP activity; also recorded: more anti-estrogenic than EM-343 and EM-652 | lacks estrogenic activity; also recorded: less estrogenic than Aragon Compound 28 | not significantly different from control or fulvestrant | not different from fulvestrant
2 | – | – | – | – | – | – | – | – | – | CC1=C(c2ccc(O)cc2)[C@H](c2ccc(OCCN3CC[C@@H](C)C3)cc2)Oc2cc(O)ccc21 [OP-1074, (2S)-3-(4-hydroxyphenyl)-4-methyl-2-(4-{2-[(3R)-3-methylpyrrolidin-1-yl]ethoxy}phenyl)-2H-chromen-7-ol] | inhibit E2-stimulated AP activity; also recorded: more anti-estrogenic than EM-343 and EM-652; also recorded: inhibited E2-stimulated AP activity in a dose dependent manner | essentially no estrogenic activity; also recorded: lack estrogenic activity; also recorded: did not stimulate AP activity | essentially pure anti-estrogen | complete anti-estrogen
